Experiment: intrinsic solubility (aqueous medium/lower pH)
Format: physicochemical

## Cc1cccc(Nc2ccccc2C(=O)O)c1C [mefanamic acid]
  intrinsic solubility: 0.0423 µg/mL

— patent US20150057266A1 (AbbVie Inc., priority 2005, published 2015)
